In the test the target is human activated kallikrein enzyme (Homo sapiens, UniProt P03952). Description: Inhibition of human activated plasma kallikrein, fluorogenic PFR-AMC substrate, 500 pM enzyme format. In kind it is biochemical. The settings on record: 500 pM activated kallikrein; 300 μM PFR-AMC; 30 min preincubation; 10 min room temperature; pH 7.5; read-out: Primary Dose Response Assay: Average EC50. An outline of the steps:
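Using fluorogenic PFR-AMC at 300 μM, cleavage by 500 pM human activated kallikrein ran 10 min at room temperature, read at 460 nm emission (380 nm excitation). Enzyme and compounds were first preincubated 30 min in 20 mM Tris pH 7.5, 150 mM NaCl, 1 mM EDTA, 0.1% PEG-400, 0.1% Triton X-100.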

Each structure is given as a SMILES string. Structures can show the parent of a compound that is named as a salt.

Sequence of human activated kallikrein enzyme (P03952 391-638 limits assumed): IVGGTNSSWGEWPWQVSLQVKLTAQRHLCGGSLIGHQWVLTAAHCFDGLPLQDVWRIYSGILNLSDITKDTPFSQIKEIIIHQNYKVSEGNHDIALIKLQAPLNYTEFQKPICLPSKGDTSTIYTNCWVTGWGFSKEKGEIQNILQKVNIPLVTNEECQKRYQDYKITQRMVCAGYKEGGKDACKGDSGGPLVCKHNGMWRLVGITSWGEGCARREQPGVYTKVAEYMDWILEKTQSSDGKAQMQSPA
Sequence of human activated kallikrein enzyme (P03952 20-390 partner limits assumed): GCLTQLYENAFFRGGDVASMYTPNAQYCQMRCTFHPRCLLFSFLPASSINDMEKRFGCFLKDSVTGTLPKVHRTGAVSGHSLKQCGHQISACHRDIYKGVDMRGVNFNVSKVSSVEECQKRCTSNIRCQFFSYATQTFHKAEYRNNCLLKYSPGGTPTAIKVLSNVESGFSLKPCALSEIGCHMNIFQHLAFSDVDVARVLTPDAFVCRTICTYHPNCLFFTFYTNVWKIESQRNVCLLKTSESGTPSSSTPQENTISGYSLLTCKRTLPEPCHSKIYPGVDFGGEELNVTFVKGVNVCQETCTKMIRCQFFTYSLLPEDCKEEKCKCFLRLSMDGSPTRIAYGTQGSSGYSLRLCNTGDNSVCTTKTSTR

For `CCOC(=O)C(C)(C)Cc1cc(C2CC2)cc2cc(COc3cc(NCc4c(C)cc5c(N)nccc5c4C)ncn3)nn12` [Example 396, ethyl 3-(2-(((6-(((1-amino-5,7-dimethylisoquinolin-6-yl)methyl)amino)pyrimidin-4-yl)oxy)methyl)-5-cyclopropylpyrazolo[1,5-a]pyridin-7-yl)-2,2-dimethylpropanoate], the EC50 lay within 1 to 10 nM.

On to `Cc1cc2c(N)nccc2c(C)c1CNc1cc(OCc2cn3c(=O)n(C4CC4)ccc3n2)ncn1` [Example 397, 2-(((6-(((1-amino-5,7-dimethylisoquinolin-6-yl)methyl)amino)pyrimidin-4-yl)oxy)methyl)-6-cyclopropylimidazo[1,2-c]pyrimidin-5(6H)-one], for which the EC50 is 10 to 100 nM.

For the molecule `CCCCc1cc(COc2cc(NCc3c(C)cc4c(N)nccc4c3C)ncn2)cc2cc(Cl)c[n+]([O-])c12` [Example 399, 6-(((6-(((1-amino-5,7-dimethylisoquinolin-6-yl)methyl)amino)pyrimidin-4-yl)oxy)methyl)-8-butyl-3-chloroquinoline 1-oxide], the EC50 was in the range of 10 to 100 nM.

For `CCCCc1cc(COc2cc(NCc3c(C)cc4c(N)nccc4c3C)ncn2)cc2cc(Cl)cnc12` [Example 402, 6-(((6-((8-butyl-3-chloroquinolin-6-yl)methoxy)pyrimidin-4-yl)amino)methyl)-5,7-dimethylisoquinolin-1-amine], the EC50 was 100 to 1000 nM.

For `Cc1cc2c(N)nccc2c(C)c1CNc1cc(C(F)(F)c2cn3cc(C4CC4)ccc3n2)ncn1` [Example 404, 6-(((6-((6-cyclopropylimidazo[1,2-a]pyridin-2-yl)difluoromethyl)pyrimidin-4-yl)amino)methyl)-5,7-dimethylisoquinolin-1-amine], the EC50 was 10 to 100 nM.

For the molecule `Cc1cc2c(N)nccc2c(C)c1CNc1cc(C(F)c2cn3cc(C4CC4)ccc3n2)ncn1` (stereo not shown) [Example 405, 6-(((6-((6-cyclopropylimidazo[1,2-a]pyridin-2-yl)fluoromethyl)pyrimidin-4-yl)amino)methyl)-5,7-dimethylisoquinolin-1-amine], the EC50 is less than 1 nM.

On to `Cc1cc2c(N)nccc2c(C)c1CNc1cc(C(O)c2cn3cc(C4CC4)ccc3n2)ncn1` (stereo not shown) [Example 406, (6-(((1-amino-5,7-dimethylisoquinolin-6-yl)methyl)amino)pyrimidin-4-yl)(6-cyclopropylimidazo[1,2-a]pyridin-2-yl)methanol], for which the EC50 is less than 1 nM.

For the molecule `Cc1cc2c(N)nccc2c(C)c1CNc1cc(OCc2ccc3ncc(Cl)cc3c2)cnn1` [Example 407, 6-(((5-((3-chloroquinolin-6-yl)methoxy)pyridazin-3-yl)amino)methyl)-5,7-dimethylisoquinolin-1-amine], the EC50 is less than 1 nM.

On to `Cc1ccc2ncc(COc3cnnc(NCc4c(C)cc5c(N)nccc5c4C)c3)cc2c1` [Example 408, 5,7-dimethyl-6-(((5-((6-methylquinolin-3-yl)methoxy)pyridazin-3-yl)amino)methyl)isoquinolin-1-amine], for which the EC50 was less than 1 nM.

On to `Cc1cc2c(N)nccc2c(C)c1CNc1cc(OCc2ccc3ncccc3c2)cnn1` [Example 409, 5,7-dimethyl-6-(((5-(quinolin-6-ylmethoxy)pyridazin-3-yl)amino)methyl)isoquinolin-1-amine], for which the EC50 is 1 to 10 nM.

Turning to `Cc1cc2c(N)nccc2c(C)c1CNc1cc(OCc2ccc3nccn3c2)cnn1` [Example 410, 6-(((5-(imidazo[1,2-a]pyridin-6-ylmethoxy)pyridazin-3-yl)amino)methyl)-5,7-dimethylisoquinolin-1-amine], the EC50 was 100 to 1000 nM.

With `Cc1cc2c(N)nccc2c(C)c1CNc1cc(OCc2cn3ccccc3n2)cnn1` [Example 411, 6-(((5-(imidazo[1,2-a]pyridin-2-ylmethoxy)pyridazin-3-yl)amino)methyl)-5,7-dimethylisoquinolin-1-amine], the EC50 lay within 10 to 100 nM.

In the case of `Cc1ccc2cc(COc3cnnc(NCc4c(C)cc5c(N)nccc5c4C)c3)ccc2n1` [Example 412, 5,7-dimethyl-6-(((5-((2-methylquinolin-6-yl)methoxy)pyridazin-3-yl)amino)methyl)isoquinolin-1-amine], the EC50 is less than 1 nM.

Take `Cc1cc2c(N)nccc2c(C)c1CNc1cc(OCc2ccc3c(cnn3C)c2)cnn1` [Example 413, 5,7-dimethyl-6-(((5-((1-methyl-1H-indazol-5-yl)methoxy)pyridazin-3-yl)amino)methyl)isoquinolin-1-amine]: the EC50 is 1 to 10 nM.

Consider `Cc1cc2c(N)nccc2c(C)c1CNc1cc(OCc2cnc3ccccn23)cnn1` [Example 414, 6-(((5-(imidazo[1,2-a]pyridin-3-ylmethoxy)pyridazin-3-yl)amino)methyl)-5,7-dimethylisoquinolin-1-amine], for which the EC50 was more than 1000 nM.

Regarding `Cc1cc2c(N)nccc2c(C)c1CNc1cc(OCc2cnc3ccc(F)cc3c2)cnn1` [Example 415, 6-(((5-((6-fluoroquinolin-3-yl)methoxy)pyridazin-3-yl)amino)methyl)-5,7-dimethylisoquinolin-1-amine], the EC50 was less than 1 nM.

`Cc1cc2c(N)nccc2c(C)c1CNc1cc(OCc2cc3cc(Cl)ccc3s2)cnn1` [Example 417, 6-(((5-((5-chlorobenzo[b]thiophen-2-yl)methoxy)pyridazin-3-yl)amino)methyl)-5,7-dimethylisoquinolin-1-amine, formic acid salt]: the EC50 lay in the range of 1 to 10 nM.

As for `Cc1cc2c(N)nccc2c(C)c1CNc1cc(OCc2ccc3nc(C)c(C)nc3c2)cnn1` [Example 418, 6-(((5-((2,3-dimethylquinoxalin-6-yl)methoxy)pyridazin-3-yl)amino)methyl)-5,7-dimethylisoquinolin-1-amine, formic acid salt], the EC50 is less than 1 nM.

As to `Cc1cnc2ccc(C(C)Oc3cnnc(NCc4c(C)cc5c(N)nccc5c4C)c3)cc2c1` (stereo not shown) [Example 419, 5,7-dimethyl-6-(((5-(1-(3-methylquinolin-6-yl)ethoxy)pyridazin-3-yl)amino)methyl)isoquinolin-1-amine], the EC50 is less than 1 nM.

On to `Cc1cc2c(N)nccc2c(C)c1CNc1cc(OC(C)c2ccc3ncc(Cl)cc3c2)cnn1` (stereo not shown) [Example 420, 6-(((5-(1-(3-chloroquinolin-6-yl)ethoxy)pyridazin-3-yl)amino)methyl)-5,7-dimethylisoquinolin-1-amine formic acid salt], for which the EC50 was less than 1 nM.

For `Cc1cc2c(N)nccc2c(C)c1CNc1cc(OCc2ccc3nccc(C)c3c2)cnn1` [Example 421, 5,7-dimethyl-6-(((5-((4-methylquinolin-6-yl)methoxy)pyridazin-3-yl)amino)methyl)isoquinolin-1-amine, formic acid], the 50% effective concentration (EC50) is 1 to 10 nM.

Turning to `Cc1cc2c(N)nccc2c(C)c1CNc1cc(OCc2ccc3ncc(C(F)(F)F)cc3c2)cnn1` [Example 423, 5,7-dimethyl-6-(((5-((3-(trifluoromethyl)quinolin-6-yl)methoxy)pyridazin-3-yl)amino)methyl)isoquinolin-1-amine], the concentration giving a half-maximal response (EC50) was less than 1 nM.

In the case of `Cc1cc2c(N)nccc2c(C)c1CNc1cc(OCc2cn3cc(C(F)(F)F)ccc3n2)cnn1` [Example 424, 5,7-dimethyl-6-(((5-((6-(trifluoromethyl)imidazo[1,2-a]pyridin-2-yl)methoxy)pyridazin-3-yl)amino)methyl)isoquinolin-1-amine], the EC50 was less than 1 nM.

For the molecule `Cc1ccc2nc(COc3cnnc(NCc4c(C)cc5c(N)nccc5c4C)c3)cn2c1` [Example 425, 5,7-dimethyl-6-(((5-((6-methylimidazo[1,2-a]pyridin-2-yl)methoxy)pyridazin-3-yl)amino)methyl)isoquinolin-1-amine], the EC50 is less than 1 nM.

As to `Cc1cc2c(N)nccc2c(C)c1CNc1cc(OCc2ccc(Oc3cccn(C)c3=O)cc2)cnn1` [Example 427, 3-(4-(((6-(((1-amino-5,7-dimethylisoquinolin-6-yl)methyl)amino)pyridazin-4-yl)oxy)methyl)phenoxy)-1-methylpyridin-2(1H)-one], the EC50 was less than 1 nM.

In the case of `Cc1cc2c(N)nccc2c(C)c1CNc1cc(N(C)Cc2ccc3ncccc3c2)cnn1` [Example 428, N^3-((1-amino-5,7-dimethylisoquinolin-6-yl)methyl)-N^5-methyl-N^5-(quinolin-6-ylmethyl)pyridazine-3,5-diamine], the half-maximal effective concentration (EC50) lay within 1 to 10 nM.

As to `Cc1cc2c(N)nccc2c(C)c1CNc1cc(OCc2csc(-c3ccccc3)n2)cnn1` [Example 430, 5,7-dimethyl-6-(((5-((2-phenylthiazol-4-yl)methoxy)pyridazin-3-yl)amino)methyl)isoquinolin-1-amine], the EC50 was in the range of 10 to 100 nM.

Regarding `Cc1cc2c(N)nccc2c(C)c1CNc1cc(OCc2ccc(Cn3ccc(C4CC4)n3)cc2)cnn1` [Example 431, 6-(((5-((4-((3-cyclopropyl-1H-pyrazol-1-yl)methyl)benzyl)oxy)pyridazin-3-yl)amino)methyl)-5,7-dimethylisoquinolin-1-amine], the concentration for a half-maximal effect (EC50) was less than 1 nM.

For the molecule `Cc1cc2c(N)nccc2c(C)c1CNc1cc(OCc2ccc(CN3CCCCC3=O)cc2)cnn1` [Example 433, 1-(4-(((6-(((1-amino-5,7-dimethylisoquinolin-6-yl)methyl)amino)pyridazin-4-yl)oxy)methyl)benzyl)piperidin-2-one], the EC50 was less than 1 nM.

Turning to `Cc1cc2c(N)nccc2c(C)c1CNc1cc(OCc2ccc(CN3CCOCC3=O)cc2)cnn1` [Example 434, 4-(4-(((6-(((1-amino-5,7-dimethylisoquinolin-6-yl)methyl)amino)pyridazin-4-yl)oxy)methyl)benzyl)morpholin-3-one], the EC50 was less than 1 nM.

With `Cc1cc2c(N)nccc2c(C)c1CNc1cc(OCc2cccc(-n3ccccc3=O)c2)cnn1` [Example 435, 1-(3-(((6-(((1-amino-5,7-dimethylisoquinolin-6-yl)methyl)amino)pyridazin-4-yl)oxy)methyl)phenyl)pyridin-2(1H)-one], the EC50 lay in the range of 1 to 10 nM.

For orientation: EC50 means the concentration at which the effect is half-maximal.

Source of the values: patent US20260374754A1, “N-((ISOQUINOLIN-6-YL)METHYL)-1H-PYRAZOLE-4-CARBOXAMIDE DERIVATIVES AS PLASMA KALLIKREIN INHIBITORS FOR THE TREATMENT OF HEREDITARY ANGIODEMA” (Takeda Pharmaceutical Company Limited, priority 2022, published 2026).
